In paper PMC3660563, “High-Throughput Screening for GPR119 Modulators Identifies a Novel Compound with Anti-Diabetic Efficacy in db/db Mice” (PLoS ONE, 2013):

What was measured:
db/db mice [1] = assay: Chronic oral treatment of diabetic db/db mice; assay type: in vivo; details: for inhibition of glycemic excursion, oral glucose tolerance test, vs vehicle: glucose 3 g/kg; for food intake and body weight: 6-week once-daily oral treatment
Procedure: Animal experimentation was conducted in accordance with the regulations adopted by the Animal Care and Use Committee, Shanghai Institute of Materia Medica, Chinese Academy of Sciences (approval number: SIMM-2012-07-WMW-04). Male C57BL/KsJ db/db mice (Model Animal Research Center of Nanjing University, Nanjing, China) were housed in a temperature-controlled room (22±2°C), with a light/dark cycle of 12 h. At 6 weeks of age, mice were randomly assigned to chronic treatments. The experimental groups and respective doses of compounds were as follows: (1) 0.5% w/v sodium carboxyl methyl cellulose (CMC), (2) 10 mg/kg AR-231453, (3) 1 mg/kg sitagliptin (Beijing Huikang Boyuan Chemical Technology Co., Ltd., Beijing, China), (4) 10 mg/kg AR-231453 plus 1 mg/kg sitagliptin, (5) 100 mg/kg MW1219, and (6) 100 mg/kg MW1219 plus 1 mg/kg sitagliptin. Each regimen was administered once daily by oral gavaging for 6 weeks. Body weight and food intake were recorded every other day and fasting glucose levels measured every week. Oral glucose tolerance test was performed in overnight-fasting mice every other week. After six weeks of treatment, HbA1c were quantified, plasma insulin and GLP-1 contents were measured using respective ELISA kit. For oral glucose tolerance test, overnight fasting mice (n = 6/treatment) were given compounds orally at desired doses and after 30 min, an oral glucose bonus (3 g/kg) was delivered. Plasma glucose levels were determined at desired time points over a 2-h period using blood collected from the tail vein. For circulating GLP-1 analysis, compounds were administered orally to fasting animals followed by an oral glucose bolus (3 g/kg) 30 min later. Blood was drawn 2 min thereafter in Eppendorf tubes containing EDTA and a DPP-4 inhibitor. Plasma samples were obtained via centrifugation and assayed for active GLP-1 by the ELISA kit. Blood was collected again after 20 min to determine insulin levels.

human GPR119 [2] = target: T1, human GPR119 (Homo sapiens, UniProt Q8TDV5); assay: Reporter gene assay (CRE-luciferase) in HEK293-hGPR119 cells; assay type: cell-based; details: for allosteric modulation of OEA potency: compound added to OEA concentration response
T1 construct: expressed in transfected cells
T1 sequence (Q8TDV5 1-335): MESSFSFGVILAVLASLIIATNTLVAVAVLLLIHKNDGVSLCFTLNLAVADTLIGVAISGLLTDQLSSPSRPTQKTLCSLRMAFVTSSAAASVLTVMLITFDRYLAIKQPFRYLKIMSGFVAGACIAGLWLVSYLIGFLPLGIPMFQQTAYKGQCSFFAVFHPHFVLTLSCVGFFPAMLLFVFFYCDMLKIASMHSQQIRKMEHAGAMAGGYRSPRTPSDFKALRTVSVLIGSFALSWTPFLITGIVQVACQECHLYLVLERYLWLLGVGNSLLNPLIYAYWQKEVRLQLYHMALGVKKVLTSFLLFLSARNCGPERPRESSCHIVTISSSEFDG
Procedure: (§1) HEK293 cells stably transfected with a human GPR119 vector and a cAMP response element-driven luciferase reporter plasmid (HEK293-hGPR119 cells) and HEK293 cells transfected only with a cAMP response element-driven luciferase reporter plasmid (control HEK293 cells) were cultured in Dulbecco’s modified Eagle medium (DMEM) (Invitrogen, Carlsbad, CA, USA) supplemented with 10% fetal bovine serum (FBS), 4.5 g/l glucose, 100 units/ml penicillin and 100 µg/ml streptomycin at 37°C in 5% CO2. MIN6 cells were maintained in DMEM containing 15% FBS, 4.5 g/l glucose, 100 units/ml penicillin and 100 µg/ml streptomycin at 37°C in 5% CO2. GLUTag cells were maintained in DMEM containing 10% FBS, 1 g/l glucose, 100 units/ml penicillin and 100 µg/ml streptomycin at 37°C in 5% CO2.
HEK293-hGPR119 cells or control HEK293 cells were seeded onto 384-well plates with a density of 16,000 cells per well. At the time of assaying, AR-231453 or test compounds dissolved in DMSO were added. After 42 h of incubation at 37°C and 5% CO2 in a cell culture incubator, cells were lysed and quantified for luciferase activity using the Steady-Glo luciferase assay system (Promega, Madison, WI, USA) according to manufacturer’s protocol. For allosteric activity studies, test compounds were 5-fold serially diluted and added to AR-231453 or OEA concentration response reaction. Luciferase signals were determined with EnVision (PerkinElmer, Boston, MA, USA).

db/db mice [3] = tested on: db/db mice; parameters: method as in the literature (reference number not given); details: ref the literature (reference number not given); cited from earlier work
human GPR119 [4] = target: T1, human GPR119; assay: cAMP accumulation assay (HTRF) in HEK293-hGPR119 cells; assay type: cell-based
Procedure: as §1
cAMP accumulation was measured using HTRF-cAMP dynamic kit (Cisbio International, Gif sur Yvette Cedex, France) according to manufacturer's instructions. Briefly, HEK293-hGPR119 cells were suspended in assay buffer (DMEM, 1 mM 3-isobutyl-1-methylxanthine) and transferred to 384-well microplates (Greiner Bio-One, Frickenhausen, Germany) at a density of 16,000 cells/well. Plates were incubated for 30 min at 37°C before adding test compounds. After treatment for 30 min at 37°C, the reactions were stopped by addition of lysis buffer containing HTRF reagents. Plates were then incubated for 60 min at room temperature, and time-resolved FRET signals were measured after excitation at 320 nm. Both the emission signal from the europium cryptate-labeled anti-cAMP antibody (620 nm) and the FRET signal resulting from the labeled cAMP-d2 (665 nm) were detected by EnVision (PerkinElmer).

GLUTag cells = assay: GLP-1 release assay in GLUTag cells; assay type: cell-based, murine; details: for GLP-1 release, low glucose medium: 2.8 mM glucose
Procedure: as §1
GLUTag cells were plated in 24-well plates on day 1 in low glucose DMEM supplemented with 10% FBS. Culture medium was replaced with DMEM (2.8 mM glucose) supplemented with 10% FBS 24 h before analysis of GLP-1 release. On the day of experiment, cells were washed twice with PBS and incubated with different compounds at desired concentrations in serum-free DMEM with 2.8 mM or 16.8 mM glucose for 1 h at 37°C and 5% CO2. The supernatants were collected by centrifugation for 3 min. GLP-1 in the supernatant was detected by a GLP-1 ELISA kit (Linco Research Laboratory).
(§2) MIN6 and GLUTag cells were cultured as described above. siRNA targeting murine GPR119 coding sequences (Forward: 5′-[…]-3′, Reverse: 5′-[…]-3′) was purchased from GenePharma company (Shanghai, China). Transfection was performed using siRNA and Lipofectamine 2000 (Invitrogen, Burlington, ON, Canada) as instructed by the manufacturer. After 36 h, knockdown efficiency of siRNA was quantified by real-time RT-PCR, and cells were used for secretion experiments.

MIN6 cells = assay: Insulin secretion assay in MIN6 cells; assay type: cell-based, mouse; details: for glucose-stimulated insulin secretion vs DMSO control: 16.8 mM glucose, 1 h, MW1219 at 15 µM and 50 µM (P<0.05), OEA at 10 µM (P<0.01)
Procedure: as §1
Insulin-secreting MIN6 cells were plated in 96-well plates (20,000 cells per well) for 2 days. On the day of experiment, culture medium was aspirated and cells were washed twice with KRBH buffer. Cells were then placed at 37°C for 30 min in KRBH containing 2.8 mM glucose. Test compounds were dissolved in either 2.8 or 16.8 mM glucose medium and added to cells for 1 h. The supernatants were collected by centrifugation at 800×g for insulin measurements. Insulin content in the supernatant was determined using an insulin ELISA kit from Linco Research Laboratory (Billerica, MA, USA).
as §2

control HEK293 cells [5] = assay: cAMP accumulation assay in control HEK293 cells; assay type: cell-based
Procedure: as §1
cAMP accumulation was measured using HTRF-cAMP dynamic kit (Cisbio International, Gif sur Yvette Cedex, France) according to manufacturer's instructions. […] Plates were then incubated for 60 min at room temperature, and time-resolved FRET signals were measured after excitation at 320 nm. Both the emission signal from the europium cryptate-labeled anti-cAMP antibody (620 nm) and the FRET signal resulting from the labeled cAMP-d2 (665 nm) were detected by EnVision (PerkinElmer).

control HEK293 cells [6] = assay: Reporter gene assay in control HEK293 cells (no GPR119); assay type: cell-based
Procedure: as §1
HEK293-hGPR119 cells or control HEK293 cells were seeded onto 384-well plates with a density of 16,000 cells per well. At the time of assaying, AR-231453 or test compounds dissolved in DMSO were added. After 42 h of incubation at 37°C and 5% CO2 in a cell culture incubator, cells were lysed and quantified for luciferase activity using the Steady-Glo luciferase assay system (Promega, Madison, WI, USA) according to manufacturer’s protocol. […] Luciferase signals were determined with EnVision (PerkinElmer, Boston, MA, USA).

[7] = reporter gene and cAMP accumulation assays
[8] = 100 mg/kg MW1219 plus 1 mg/kg sitagliptin, oral, once daily, 6 weeks
[9] = MW1219 100 mg/kg, sitagliptin 1 mg/kg
[10] = HEK293-hGPR119 cells, 42 h incubation, read-out: EC50, luciferase expression
[11] = MW1219 0 μM (Table S3), read-out: EC50 of OEA
[12] = in presence of MW1219 1 μM, read-out: EC50 of OEA
[13] = in presence of MW1219 10 μM, read-out: EC50 of OEA

## CC(C)c1noc(C2CCN(c3ncnc(Nc4ccc(S(C)(=O)=O)cc4F)c3[N+](=O)[O-])CC2)n1 [AR-231453]
db/db mice [1]; AR-231453 in combination with sitagliptin
  feeding and weight gain: did not induce noticeable effects
Human GPR119 [2]; [7]
  allosteric modulation of OEA potency: without affecting its potency
db/db mice [3]
  reduction of food intake: only at very high doses
Human GPR119 [4]; OEA 0 μM (Table S2), read-out: EC50 of AR-231453
  EC50: 1.19 ± 0.16 nM

## CCOC(=O)c1ccc2oc3ccc(O)cc3c(=O)c2c1 [MW1219]
db/db mice [1]; 100 mg/kg MW1219, 6 weeks, 2 min after oral glucose 3 g/kg
  circulating GLP-1 levels: not elevated
db/db mice [1]; 100 mg/kg MW1219, 6 weeks, 20 min after oral glucose 3 g/kg
  insulin response to a glucose bolus: notably more pronounced than that of controls
db/db mice [1]; 100 mg/kg MW1219, after 6 weeks, P<0.05
  inhibition of glycemic excursion, oral glucose tolerance test, vs vehicle: 8.6%
db/db mice [1]; 100 mg/kg MW1219, oral, once daily, 6 weeks
  reduction of fasting blood glucose vs control: 16%
db/db mice [1]; 100 mg/kg MW1219, oral, once daily, 6 weeks, P<0.05
  HbA1c decrease compared with the control: 0.67%
db/db mice [1]; 100 mg/kg MW1219 plus 1 mg/kg sitagliptin, after 6 weeks, P<0.001
  inhibition of glycemic excursion, oral glucose tolerance test, vs vehicle: 18.6%
db/db mice [1]; [8]
  HbA1c change: no difference
  fasting blood glucose vs mice that received sitagliptin alone: significantly lower
  reduction of fasting blood glucose vs control: 29%
db/db mice [1]; [9]
  food intake and body weight: neither food intake inhibition nor weight loss
db/db mice [1]; MW1219 100 mg/kg, data not shown
  fasting plasma glucose levels and glucose tolerance, pilot dose-response studies: improved both fasting plasma glucose levels and glucose tolerance
GLUTag cells; 20 µM and 50 µM MW1219, siRNA-treated GLUTag cells
  GLP-1 release after GPR119 siRNA knockdown: indistinguishable from the medium control
GLUTag cells; 1 h
  GLP-1 release, low glucose medium: Neither MW1219 nor OEA exhibited any effect
GLUTag cells; 16.8 mM glucose, 1 h
  GLP-1 released to supernatant, high glucose: elevated dose-dependently
MIN6 cells; 15 µM MW1219, GPR119 siRNA-treated MIN6 cells
  insulin secretion after GPR119 siRNA knockdown: suppressed by siRNA
MIN6 cells; 2.8 mM glucose
  insulin release under low glucose: no effect
MIN6 cells
  glucose-stimulated insulin secretion vs DMSO control: elevated insulin significantly
Human GPR119 [2]; HEK293-hGPR119 cells
  efficacy relative to forskolin in the reporter gene assay: same level of efficacy as forskolin
Human GPR119 [2]; [10]
  EC50: 960 ± 80 nM
Human GPR119 [2]; [7]
  allosteric modulation of OEA potency: not PAM for OEA
Control HEK293 cells [5]
  cAMP increase in control cells: had no influence
Control HEK293 cells [6]
  activity on luciferase expression in the absence of GPR119: did not show any activity
Control HEK293 cells [6]; Figure 2C
  efficacy compared to forskolin: 10%
Human GPR119 [4]; 50 µM MW1219, HEK293-hGPR119 cells
  efficacy, cAMP accumulation, relative to forskolin: about 40%

## CCCCCCCC/C=C\CCCCCCCC(=O)NCCO [OEA, oleoylethanolamide]
GLUTag cells; 1 h
  GLP-1 release, low glucose medium: Neither MW1219 nor OEA exhibited any effect
MIN6 cells
  glucose-stimulated insulin secretion vs DMSO control: elevated insulin significantly
Human GPR119 [2]; 1 µM OEA, HTS luciferase assay
  efficacy on GPR119: 15%
Human GPR119 [2]; AR-231453 0 nM (Table S1), read-out: EC50 of OEA
  EC50: 2810 ± 210 nM
Human GPR119 [2]; [10]
  EC50: 2780 ± 180 nM
Human GPR119 [2]; [11]
  EC50: 2890 ± 610 nM
Human GPR119 [2]; [12]
  EC50: 3090 ± 680 nM
Human GPR119 [2]; [13]
  EC50: 2560 ± 470 nM
Human GPR119 [2]; reporter gene and cAMP accumulation assays, compound added to AR-231453 concentration response
  allosteric modulation of AR-231453 potency: did not alter the potency of AR-231453
Human GPR119 [4]; [11]
  EC50: 1690 ± 170 nM
Human GPR119 [4]; [12]
  EC50: 1830 ± 240 nM
Human GPR119 [4]; [13]
  EC50: 1410 ± 110 nM

## N[C@@H](CC(=O)N1CCn2c(nnc2C(F)(F)F)C1)Cc1cc(F)c(F)cc1F [sitagliptin, reference compound]
db/db mice [1]; 1 mg/kg sitagliptin, oral, once daily, 6 weeks
  HbA1c change: no difference
db/db mice [1]; [9]
  food intake and body weight: failed to suppress food intake and decrease body weight
db/db mice [1]; sitagliptin 1 mg/kg
  plasma GLP-1 levels: raised plasma GLP-1 levels
